Results as given in US10513523B2, “Imidazopyrazines and pyrazolopyrimidines and their use as AMPA receptor modulators” (Janssen Pharmaceutica NV, priority 2015, dated 2019).

What follows are compounds tested against GluA1o-γ8 (GRIA1o-CACNG8 fusion construct; TARP γ8 dependent AMPA receptor) (Homo sapiens (Human), UniProt P42261+Q8WXS5) (assay: Calcium flux assay (FLIPR), inhibition of glutamate response of GluA1o-γ8 channel). Conditions: HEK293 cells stably expressing GRIA1o-CACNG8 fusion; 15 μM glutamate; pIC50 = negative log of IC50 in molar; read-out: GluR1-γ8 (pIC50) (converted).
GluA1o-γ8 (GRIA1o-CACNG8 fusion construct; TARP γ8 dependent AMPA receptor), sequence (P42261 other isoform, or with tags, fused parts or gaps): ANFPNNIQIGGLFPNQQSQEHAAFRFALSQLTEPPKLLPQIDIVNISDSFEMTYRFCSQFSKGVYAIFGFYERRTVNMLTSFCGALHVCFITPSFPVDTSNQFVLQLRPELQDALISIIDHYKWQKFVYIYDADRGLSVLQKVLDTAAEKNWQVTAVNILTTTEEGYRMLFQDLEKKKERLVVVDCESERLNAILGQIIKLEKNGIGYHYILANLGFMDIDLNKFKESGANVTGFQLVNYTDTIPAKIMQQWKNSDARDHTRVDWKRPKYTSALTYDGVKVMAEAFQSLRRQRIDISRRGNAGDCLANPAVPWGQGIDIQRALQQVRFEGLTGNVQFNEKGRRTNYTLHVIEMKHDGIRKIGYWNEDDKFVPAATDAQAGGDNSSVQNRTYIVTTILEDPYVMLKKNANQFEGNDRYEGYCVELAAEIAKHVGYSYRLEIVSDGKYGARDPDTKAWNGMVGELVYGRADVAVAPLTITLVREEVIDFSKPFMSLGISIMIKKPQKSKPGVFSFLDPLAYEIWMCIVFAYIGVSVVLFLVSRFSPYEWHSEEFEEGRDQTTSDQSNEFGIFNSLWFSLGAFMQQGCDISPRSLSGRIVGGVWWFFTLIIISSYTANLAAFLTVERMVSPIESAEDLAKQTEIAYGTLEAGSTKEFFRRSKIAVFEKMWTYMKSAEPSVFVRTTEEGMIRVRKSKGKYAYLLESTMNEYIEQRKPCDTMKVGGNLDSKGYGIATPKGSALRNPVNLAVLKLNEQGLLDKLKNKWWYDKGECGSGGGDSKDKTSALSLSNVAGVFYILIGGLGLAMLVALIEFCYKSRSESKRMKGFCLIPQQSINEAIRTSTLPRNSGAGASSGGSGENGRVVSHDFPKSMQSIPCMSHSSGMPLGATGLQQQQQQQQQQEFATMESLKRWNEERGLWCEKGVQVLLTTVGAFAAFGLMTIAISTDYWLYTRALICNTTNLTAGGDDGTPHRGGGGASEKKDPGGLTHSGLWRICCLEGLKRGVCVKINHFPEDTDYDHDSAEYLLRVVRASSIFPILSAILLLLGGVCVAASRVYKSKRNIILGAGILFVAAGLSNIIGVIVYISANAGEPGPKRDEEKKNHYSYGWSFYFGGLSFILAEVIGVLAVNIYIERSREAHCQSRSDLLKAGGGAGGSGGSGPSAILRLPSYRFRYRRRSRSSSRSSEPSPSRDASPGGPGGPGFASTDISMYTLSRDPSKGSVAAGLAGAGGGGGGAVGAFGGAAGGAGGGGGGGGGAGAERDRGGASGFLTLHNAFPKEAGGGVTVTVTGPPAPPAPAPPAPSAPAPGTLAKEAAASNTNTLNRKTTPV
Type: cell-based
Summary of the method: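 Potency is the midpoint of a four-parameter logistic fit to control-normalized FLIPR calcium responses elicited by 15 μM glutamate. Stable HEK293 cells carried a fused GluA1o-γ8 construct and were preincubated with compound and calcium dye in pH 7.4 HEPES buffer.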

Row | SMILES | IC50 [nM]
1 | Cc1cnc(N2CCOCC2)n2nc(C(C)C)c(-c3ccc4c(c3)CC(=O)N4)c12 [Example 244, 5-(2-Isopropyl-4-methyl-7-morpholino-pyrazolo[1,5-c]pyrimidin-3-yl)indolin-2-one] | 79.4
2 | O=C1Cc2cc(-c3c(-c4ccc(F)cc4)nc4c(N5CC(F)(F)C5)nccn34)ccc2N1 [Example 60, 5-[8-(3,3-Difluoroazetidin-1-yl)-2-(4-fluorophenyl)imidazo[1,2-a]pyrazin-3-yl]indolin-2-one] | 1.58
3 | Cc1cnc(N2CCOCC2)n2nc(C(C)C)c(-c3ccc4[nH]ncc4c3)c12 [Example 239, 4-[3-(1H-Indazol-5-yl)-2-isopropyl-4-methyl-pyrazolo[1,5-c]pyrimidin-7-yl]morpholine] | 39.8
4 | O=C1Cc2cc(-c3c(-c4ccc(F)cc4)nn4c(N5CCOCC5)nccc34)ccc2N1 [Example 164, 5-[2-(4-Fluorophenyl)-7-morpholino-pyrazolo[1,5-c]pyrimidin-3-yl]indolin-2-one] | 0.501
5 | O=C1CCN(c2nccn3c(-c4ccc5c(c4)CC(=O)N5)c(-c4ccc(F)cc4)nc23)CC1 [Example 109, 5-(2-(4-Fluorophenyl)-8-(4-oxopiperidin-1-yl)imidazo[1,2-a]pyrazin-3-yl)indolin-2-one] | 0.0631
6 | O=C1CN(c2nccn3c(-c4ccc5c(c4)CC(=O)N5)c(C(=O)c4ccccc4)nc23)CCN1 [Example 246, 5-[2-Benzoyl-8-(3-oxopiperazin-1-yl)imidazo[1,2-a]pyrazin-3-yl]indolin-2-one] | 31.6
7 | O=C1CN(c2nccn3c(-c4ccc(O)cc4)c(-c4ccc(F)cc4)nc23)CCN1 [Example 27, 4-[2-(4-Fluorophenyl)-3-(4-hydroxyphenyl)imidazo[1,2-a]pyrazin-8-yl]piperazin-2-one] | 3.16
8 | O=S1(=O)Cc2cc(-c3c(-c4ccc(F)cc4)nc4c(N5CCC(O)CC5)nccn34)ccc2N1 [Example 119, 1-[3-(2,2-Dioxo-1,3-dihydro-2,1-benzothiazol-5-yl)-2-(4-fluorophenyl)imidazo[1,2-a]pyrazin-8-yl]piperidin-4-ol] | 3.16
9 | Oc1ccc(-c2c(-c3cccc(F)c3)nc3c(N4CCOCC4)nccn23)cc1 [Example 4, 4-[2-(3-Fluorophenyl)-8-morpholino-imidazo[1,2-a]pyrazin-3-yl]phenol] | 63.1
10 | Cc1cc2c(-c3ccc4c(c3)CC(=O)N4)c(-c3ccccc3)nn2c(N2CCOCC2)n1 [Example 198, 5-(5-Methyl-7-morpholino-2-phenyl-pyrazolo[1,5-c]pyrimidin-3-yl)indolin-2-one] | 3.16
11 | O=C1Cc2cc(-c3c(C4CCC4)nn4cnc(C(F)(F)F)cc34)ccc2N1 [Example 226, 5-[2-Cyclobutyl-5-(trifluoromethyl)pyrazolo[1,5-c]pyrimidin-3-yl]indolin-2-one] | 794
12 | CC(C)(C)c1nc2c(N3CCC(O)CC3)nccn2c1-c1ccc2c(c1)CC(=O)N2 [Example 88, 5-[2-tert-Butyl-8-(4-hydroxy-1-piperidyl)imidazo[1,2-a]pyrazin-3-yl]indolin-2-one] | 126
13 | COc1nccc2c(-c3ccc4c(c3)CC(=O)N4)c(-c3ccccc3)nn12 [Example 206, 5-(7-Methoxy-2-phenyl-pyrazolo[1,5-c]pyrimidin-3-yl)indolin-2-one] | 398
14 | O=C1Cc2cc(-c3c(-c4ccc(F)cc4)nc4c(N5CCO[C@@H](C(F)(F)F)C5)nccn34)ccc2N1 (single isomer, unassigned) [Example 48, (R*)-5-[2-(4-Fluorophenyl)-8-[2-(trifluoromethyl)morpholin-4-yl]imidazo[1,2-a]pyrazin-3-yl]indolin-2-one] | 12.6
15 | CO[C@@H]1CCN(c2nccc3c(-c4ccc5c(c4)CC(=O)N5)c(-c4ccccc4)nn23)C1 [Example 202, 5-[7-[(3R)-3-Methoxypyrrolidin-1-yl]-2-phenyl-pyrazolo[1,5-c]pyrimidin-3-yl]indolin-2-one] | 2.51
16 | O=C1Cc2cc(-c3c(-c4ccc(F)cc4)nc4c(N5CCOCC5)ncc(Cl)n34)ccc2N1 [Example 163, 5-[5-Chloro-2-(4-fluorophenyl)-8-morpholino-imidazo[1,2-a]pyrazin-3-yl]indolin-2-one] | 0.126
17 | O=C1Cc2cc(-c3c(-c4ccccc4)nn4c(N5CC[C@@H](O)[C@@H](F)C5)nccc34)ccc2N1 (relative stereo) [Example 204, (cis)-5-[7-(3-Fluoro-4-hydroxy-1-piperidyl)-2-phenyl-pyrazolo[1,5-c]pyrimidin-3-yl]indolin-2-one] | 1.26
18 | Fc1ccc(-c2nc3c(N4CC5(COC5)C4)nccn3c2-c2ccc3[nH]ncc3c2)cc1 [Example 25, 2-[2-(4-Fluorophenyl)-3-(1H-indazol-5-yl)imidazo[1,2-a]pyrazin-8-yl]-6-oxa-2-azaspiro[3.3]heptane] | 7.94
19 | O=C1Cc2cc(-c3c(-c4ccc(F)cc4)nn4c(N5CC(CO)C5)nccc34)ccc2N1 [Example 180, 5-[2-(4-Fluorophenyl)-7-[3-(hydroxymethyl)azetidin-1-yl]pyrazolo[1,5-c]pyrimidin-3-yl]indolin-2-one] | 2

Row | SMILES | IC50 [nM]
20 | Nc1nccn2c(-c3ccc4[nH]c(=O)[nH]c4c3)c(-c3ccc(F)cc3)nc12 [Example 87, 5-[8-Amino-2-(4-fluorophenyl)imidazo[1,2-a]pyrazin-3-yl]-1,3-dihydrobenzimidazol-2-one] | 398
21 | N#Cc1ccc(-c2nc3c(N4CCNC(=O)C4)nccn3c2-c2ccc3[nH]ncc3c2)cc1 [Example 209, 4-[3-(1H-Indazol-5-yl)-8-(3-oxopiperazin-1-yl)imidazo[1,2-a]pyrazin-2-yl]benzonitrile] | 2
22 | O=C1Cc2cc(-c3c(-c4ccccc4)nc4cnc(C(F)(F)F)cn34)ccc2N1 [Example 218, 5-[2-Phenyl-6-(trifluoromethyl)imidazo[1,2-a]pyrazin-3-yl]indolin-2-one] | 100
23 | O=C1Cc2cc(-c3c(C4CCCC4)nc4c(N5CCOCC5)nccn34)ccc2N1 [Example 57, 5-(2-Cyclopentyl-8-morpholino-imidazo[1,2-a]pyrazin-3-yl)indolin-2-one] | 15.8
24 | O=C1Cc2cc(-c3c(-c4ccc(F)cc4)nc4c(N5CC[C@@H](O)[C@H](F)C5)nccn34)ccc2N1 (relative stereo) [Example 70, (trans)-5-[8-(3-Fluoro-4-hydroxy-1-piperidyl)-2-(4-fluorophenyl)imidazo[1,2-a]pyrazin-3-yl]indolin-2-one] | 0.158
25 | O=C1CCN(c2nccc3c(-c4ccc5c(c4)CC(=O)N5)c(-c4ccc(F)cc4)nn23)CC1 [Example 174, 5-[2-(4-Fluorophenyl)-7-(4-oxo-1-piperidyl)pyrazolo[1,5-c]pyrimidin-3-yl]indolin-2-one] | 0.0794
26 | CC(C)c1nn2c(N3CCOCC3)ncc(F)c2c1-c1ccc2c(c1)CC(=O)N2 [Example 235, 5-(4-Fluoro-2-isopropyl-7-morpholino-pyrazolo[1,5-c]pyrimidin-3-yl)indolin-2-one] | 501
27 | CC1(O)CN(c2nccn3c(-c4ccc5c(c4)CC(=O)N5)c(-c4ccc(F)cc4)nc23)C1 [Example 67, 5-[2-(4-Fluorophenyl)-8-(3-hydroxy-3-methyl-azetidin-1-yl)imidazo[1,2-a]pyrazin-3-yl]indolin-2-one] | 1.26
28 | O=c1[nH]c2ccc(-c3c(-c4ccc(F)cc4)nc4c(N5CCOCC5)ncc(F)n34)cc2[nH]1 [Example 162, 5-[5-Fluoro-2-(4-fluorophenyl)-8-morpholino-imidazo[1,2-a]pyrazin-3-yl]-1,3-dihydrobenzimidazol-2-one] | 3.98
29 | O=C1Cc2cc(-c3c(-c4ccc(F)cc4)nn4c(N5CC(F)(F)C5)nccc34)ccc2N1 [Example 176, 5-[7-(3,3-Difluoroazetidin-1-yl)-2-(4-fluorophenyl)pyrazolo[1,5-c]pyrimidin-3-yl]indolin-2-one] | 3.16
30 | CC(=O)N1CCN(c2ncc(Br)n3c(-c4ccc5c(c4)CC(=O)N5)c(Cc4ccccc4)nc23)CC1 [Example 113, 5-(8-(4-Acetylpiperazin-1-yl)-2-benzyl-5-bromoimidazo[1,2-a]pyrazin-3-yl)indolin-2-one] | 0.316
31 | O=C1Cc2cc(-c3c(Cc4ccccc4)nc4c(N5CCOCC5)nccn34)ccc2N1 [Example 20, 5-(2-Benzyl-8-morpholino-imidazo[1,2-a]pyrazin-3-yl)indolin-2-one] | 1
32 | O=C1Cc2cc(-c3c(-c4ccc(F)cc4)nc4c(N5CCS(=O)(=O)CC5)nccn34)ccc2N1 [Example 47, 5-[8-(1,1-Dioxo-1,4-thiazinan-4-yl)-2-(4-fluorophenyl)imidazo[1,2-a]pyrazin-3-yl]indolin-2-one] | 0.398
33 | O=C1NCc2cc(-c3c(-c4ccc(F)cc4)nc4c(N5CCOCC5)nccn34)ccc2N1 [Example 120, 6-[2-(4-Fluorophenyl)-8-morpholino-imidazo[1,2-a]pyrazin-3-yl]-3,4-dihydro-1H-quinazolin-2-one] | 100
34 | O=C(Nc1ccccc1)c1nc2c(N3CCOCC3)nccn2c1-c1ccc(O)cc1 [Example 138, 3-(4-Hydroxyphenyl)-8-morpholino-N-phenyl-imidazo[1,2-a]pyrazine-2-carboxamide] | 20
35 | O=C1Cc2cc(-c3c(-c4ccccc4)nn4c(N5CCOCC5)nccc34)ccc2N1 [Example 201, 5-(7-Morpholino-2-phenyl-pyrazolo[1,5-c]pyrimidin-3-yl)indolin-2-one] | 1
36 | O=C1Cc2cc(-c3c(-c4ccc(F)cc4)nc4c(N5CCCC5)nccn34)ccc2N1 [Example 45, 5-[2-(4-Fluorophenyl)-8-pyrrolidin-1-yl-imidazo[1,2-a]pyrazin-3-yl]indolin-2-one] | 1
37 | Cc1cnc(N2CCOCC2)n2nc(-c3ccccc3)c(-c3ccc4[nH]ncc4c3)c12 [Example 212, 4-[3-(1H-Indazol-5-yl)-4-methyl-2-phenyl-pyrazolo[1,5-c]pyrimidin-7-yl]morpholine] | 0.0794
